≈ marks a conversion by molar mass, not a printed value.
Key:
[1] = Ophthalmic irritability studies; assay type: in vivo
Description: (§1) Moreover, the anatomopathological elements and the clinical events were characterized during the experiments.

[2] = Chronic study, external application for six months; assay type: in vivo, Sprague Dawley rats; settings: applied externally for a period of six months
Description: Chronic studies of 2-bromo-5-(2-bromo-nitro-vinyl)-furan were made on Sprague Dawley rats.

Oral LD50 [3] = assay type: in vivo, mice OF1; settings: taken orally, tragacant gum as vehicle
Description: as §1

Pseudomonas aeruginosa [4] = assay: Experimental eye infection, erosion and instillation method; assay type: in vivo, New Zealand Rabbits; settings: post inoculation evaluation
Method: The effectiveness of two oil formulations was checked of 0.05% for the experimental treatment of eye infections by Pseudomonas aeruginosa in New Zealand Rabbits through the erosion and instillation method. The effectiveness of treatments was tested clinically and microbiologically, observing significant differences with the control group (not treated) (Table No. 2 and 2.1.).

[5] = tested on: Mycoplasma bovigenitalium; assay: In vitro MIC; assay type: cell-based; settings: Mycoplasmopsis bovigenitalium, single value, MIC50 or MIC90 not stated, read-out: Minimal Inhibitory Concentration (MIC)
Method: (§2) The antimicrobial sensitivity was first evaluated "in vitro" using the serial dilution method for bacteria and fungi. Other growth methods in agar cultures were included for other species. The liquid and solid mediums used were Mueller-Hinton, Tryptona Soya, Sabouraud Dextrosa, Sabouraud Maltose and other mediums in accordance with the cultural demands of the micro-organisms valued.
(§3) The temperature and incubation period was adjusted to conditions and characteristics of the micro-organisms used.
(§4) The Minimal Inhibitory Concentration (MIC) was calculated in terms of MIC50 and MIC90 in µg/ml.

[6] = tested on: septic puerperal metritis; assay: Treatment of septic puerperal metritis; assay type: in vivo, female oxes; settings: G-1 1.5% oil solution intrauterine, Tetracycline abdominal aorta route
Method: The treatment consisted in applying 40 ml for three consecutive days at intervals of 24 hours from the diagnosis of the disease process. Treatment was compared with intrasoric tetracyclin.

Salmonella thyphi = assay: In vitro MIC (serial dilution); assay type: cell-based
Method: as §2, §3, §4

Streptococcus pyogenes = assay: In vitro MIC (serial dilution); assay type: cell-based
Method: as §2, §3, §4

Staphylococcus albus = assay: In vitro MIC (serial dilution); assay type: cell-based
Method: as §2, §3, §4

Haemophilus influenzae = assay: In vitro MIC (serial dilution); assay type: cell-based
Method: as §2, §3, §4

Candida pseudotropicalis = assay: In vitro MIC (serial dilution); assay type: cell-based; settings: Kluyveromyces marxianus
Method: as §2, §3, §4

Enterobacter spp. = assay: In vitro MIC (serial dilution); assay type: cell-based
Method: as §2, §3, §4

Candida zeyfanoide = assay: In vitro MIC (serial dilution); assay type: cell-based
Method: as §2, §3, §4

Streptococcus agalactiae = assay: In vitro MIC (serial dilution); assay type: cell-based
Method: as §2, §3, §4

Pseudomonas maltophila = assay: In vitro MIC (serial dilution); assay type: cell-based
Method: as §2, §3, §4

Pasteurella multocida = assay: In vitro MIC (serial dilution); assay type: cell-based
Method: as §2, §3, §4

Neisseria meningitidis = assay: In vitro MIC (serial dilution); assay type: cell-based
Method: as §2, §3, §4

Escherichia coli = assay: In vitro MIC (serial dilution); assay type: cell-based
Method: as §2, §3, §4

Candida krusei = assay: In vitro MIC (serial dilution); assay type: cell-based; settings: Pichia kudriavzevii
Method: as §2, §3, §4

Leptospira pomona = assay: In vitro MIC (serial dilution); assay type: cell-based
Method: as §2, §3, §4

Salmonella enteritidis = assay: In vitro MIC (serial dilution); assay type: cell-based; settings: Salmonella enterica
Method: as §2, §3, §4

Salmonella choleraesuis = assay: In vitro MIC (serial dilution); assay type: cell-based; settings: Salmonella enterica
Method: as §2, §3, §4

Aspergillus sp. = assay: In vitro MIC (serial dilution); assay type: cell-based
Method: as §2, §3, §4

Oral LD50 [7] = assay type: in vivo, Sprague Dawley rats; settings: taken orally, tragacant gum as vehicle
Description: as §1

Pseudomonas aeruginosa [8] = assay: Infected burn wound treated with ointments; assay type: in vivo, guinea-pigs; settings: concentration of ointment applied on 2 cm^2 infected burns
Method: The "in vivo" effectiveness of four ointments of 2-bromo-5-(2-bromo-2-nitro-vinyl)-furan was evaluated at 1, 0.5, 0.25 and 0.125% in hydrophislous ointment applying it on 2 cm^2 of burns provoked to guinea-pigs and subsequently infected with Pseudomonas aeruginosa by a burn wound in an area of 2 cm^2, using positive and negative control groups.

Percutaneous LD50 [9] = assay type: in vivo, Sprague Dawley rats; settings: interscapular region, 0.2 ml/10 g of body mass
Description: as §1

[10] = tested on: Streptococcus agalactiae and Staphylococcus aureus; assay: Intracisternal treatment of clinical mastitis; assay type: in vivo, femal oxes
Description: The active principle in a concentration of 0.1 % is applied by intracisternal route daily for three consecutive days in femal oxes clinically affected by mastitis of morbid catarrh purulen course types, in which the isolated micro-organisms were Streptococcus agalactiae and Staphylococcus aureus. As a control medicament the mammary infusion of neomicine was used.

Percutaneous LD50 [11] = assay type: in vivo, mice OF1; settings: interscapular region, 0.2 ml/10 g of body mass
Description: as §1

[12] = group I, ointment at 0.05% for 8 days
[13] = group II, ointment at 0.05% for 4 days
[14] = group III, eye drops at 0.05% for 4 days

With O=[N+]([O-])C(Br)=Cc1ccc(Br)o1 [Product G-1, 2-bromo-5-(2-bromo-2-nitro-vinyl)-furan] the “concentrations at which no irritating effects were made on the eye structure” value [1] was “lower than 1.25%”, the “haematological, haemochemical and histopathological studies” value [2] was “did not lead to any major problems in the different organs and tissues analysed” and the “Lethal Average Dose (LD50)” value (Oral LD50 [3]; mice OF1 females) was 1731.4 mg/kg of body mass. The “Lethal Average Dose (LD50)” value (Oral LD50 [3]; mice OF1 male) was 1835.8 mg/kg of body mass, the “Bacteriolo-gical Exam” value (Pseudomonas aeruginosa [4]; [12]) was 6 (+) and the Edam (Pseudomonas aeruginosa [4]; [12]) was 6/6. For the same molecule, the Hyperemia (Pseudomonas aeruginosa [4]; [12]) was 6/6, the Secretions (Pseudomonas aeruginosa [4]; [12]) was 6/6 and the Ulcer (Pseudomonas aeruginosa [4]; [12]) was 6/6. The “Bacteriolo-gical Exam” value (Pseudomonas aeruginosa [4]; [13]) was 6 (+), the Edam (Pseudomonas aeruginosa [4]; [13]) was 6/6 and the Hyperemia (Pseudomonas aeruginosa [4]; [13]) was 6/6. The Secretions (Pseudomonas aeruginosa [4]; [13]) was 6/6, the Ulcer (Pseudomonas aeruginosa [4]; [13]) was 6/6 and the “Bacteriolo-gical Exam” value (Pseudomonas aeruginosa [4]; [14]) was 6 (+). The Edam (Pseudomonas aeruginosa [4]; [14]) was 6/6, the Hyperemia (Pseudomonas aeruginosa [4]; [14]) was 6/6 and the Secretions (Pseudomonas aeruginosa [4]; [14]) was 6/6. The Ulcer (Pseudomonas aeruginosa [4]; [14]) was 6/6, the MIC [5] was 50 µg/mL (≈ 168 µM) and the Recuperated n ([6]; 27 females, 19 females) was 20. The “IIA (Artificial insemination index)” value [6] was 1.091±0.30a, the Recuperated % [6] was 74.1% and the “T-R (Average of treatment interval of clinical recuperation)” value [6] was 17.7 days. For the same molecule, the “IIA (Artificial insemination index)” value ([6]; listed as new formula) was 1.09 ± 0.30, the MIC50 (Salmonella thyphi) was 2.5 µg/mL (≈ 8.42 µM) and the MIC90 (Salmonella thyphi) was 10 µg/mL (≈ 33.7 µM). The MIC50 (Streptococcus pyogenes) was 1.86 µg/mL (≈ 6.26 µM), the MIC90 (Streptococcus pyogenes) was 4.42 µg/mL (≈ 14.9 µM) and the MIC50 (Staphylococcus albus) was 10.2 µg/mL (≈ 34.5 µM). The MIC90 (Staphylococcus albus) was 19.8 µg/mL (≈ 66.8 µM), the MIC50 (Haemophilus influenzae) was 3.51 µg/mL (≈ 11.8 µM) and the MIC90 (Haemophilus influenzae) was 39.2 µg/mL (≈ 132 µM). The MIC50 (Candida pseudotropicalis) was 1.92 µg/mL (≈ 6.47 µM), the MIC90 (Candida pseudotropicalis) was 3.56 µg/mL (≈ 12 µM) and the MIC50 (Enterobacter spp.) was 5.3 µg/mL (≈ 17.9 µM). For the same molecule, the MIC90 (Enterobacter spp.) was 17.2 µg/mL (≈ 57.8 µM), the MIC50 (Candida zeyfanoide) was 1.92 µg/mL (≈ 6.47 µM) and the MIC90 (Candida zeyfanoide) was 3.56 µg/mL (≈ 12 µM). The MIC50 (Streptococcus agalactiae) was 1.99 µg/mL (≈ 6.7 µM), the MIC90 (Streptococcus agalactiae) was 4.55 µg/mL (≈ 15.3 µM) and the MIC50 (Pseudomonas maltophila) was 29.7 µg/mL (≈ 100 µM). It also gave an MIC90 (Pseudomonas maltophila) of 45.1 µg/mL (≈ 152 µM), an MIC50 (Pasteurella multocida) of 3.59 µg/mL (≈ 12.1 µM) and an MIC90 (Pasteurella multocida) of 9.47 µg/mL (≈ 31.9 µM). For the same molecule, the MIC50 (Neisseria meningitidis) was 1.84 µg/mL (≈ 6.2 µM), the MIC90 (Neisseria meningitidis) was 3.47 µg/mL (≈ 11.7 µM) and the MIC50 (Escherichia coli) was 7.53 µg/mL (≈ 25.4 µM). The MIC90 (Escherichia coli) was 16 µg/mL (≈ 53.8 µM), the MIC50 (Candida krusei) was 1.92 µg/mL (≈ 6.47 µM) and the MIC90 (Candida krusei) was 2.84 µg/mL (≈ 9.57 µM). For the same molecule, the MIC50 (Leptospira pomona) was 8.84 µg/mL (≈ 29.8 µM), the MIC90 (Leptospira pomona) was 11.7 µg/mL (≈ 39.3 µM) and the MIC50 (Salmonella enteritidis) was 6.86 µg/mL (≈ 23.1 µM). It also gave an MIC90 (Salmonella enteritidis) of 11.5 µg/mL (≈ 38.7 µM), an MIC50 (Salmonella choleraesuis) of 5.57 µg/mL (≈ 18.8 µM) and an MIC90 (Salmonella choleraesuis) of 10.5 µg/mL (≈ 35.4 µM). For the same molecule, the MIC50 (Aspergillus sp.) was 16.2 µg/mL (≈ 54.6 µM), the MIC90 (Aspergillus sp.) was 48.3 µg/mL (≈ 163 µM) and the “Lethal Average Dose (LD50)” value (Oral LD50 [7]; female Sprague Dawley rats) was 1515.5 mg/kg of body mass. The “Lethal Average Dose (LD50)” value (Oral LD50 [7]; male Sprague Dawley rats) was 1857 mg/kg of body mass, the “effective dose 50 (ED50)” value (Pseudomonas aeruginosa [8]) was 0.125% and the LD50 (Percutaneous LD50 [9]; female Sprague Dawley rats) was 14.7%. The LD50 (Percutaneous LD50 [9]; male Sprague Dawley rats) was 15.8%, the “Recuperated n (affected parts)” value ([10]; G-I 0.1% intracisternal daily for three days (57 parts), neomicine mammary infusion (12 parts)) was 56 and the “Recuperated % (clinical recuperation of the affected parts)” value ([10]; G-I 0.1% intracisternal daily for three days, neomicine mammary infusion) was 98.25%. For the same molecule, the LD50 (Percutaneous LD50 [11]; mice OF1 females) was 9.8% and the LD50 (Percutaneous LD50 [11]; mice OF1 males) was 12.1%.

Source: patent publication EP0678516B1, “Preparation of 2-bromo-5-(2-bromo-2-nitrovinyl)-furan and its use as microcide” (CENTRO DE BIOACTIVOS QUIMICOS DE LA UNIVERSIDAD CENTRAL DE …, priority 1994, dated 1995)
